Laboratory results as given in patent US11000491B2, “Amino-aryl-benzamide compounds and methods of use thereof” (HEPANOVA, INC., priority 2017, dated 2021).

Tests used:
Assay type in all cases: cell-based
Huh7 cells = test: LD content in Huh7 cells pre-treated with insulin, Oil-Red-O staining, absorbance OD 540 nm; settings: Homo sapiens, Huh-7, Huh7 cells, procedure of Example 3; read-out: LD content inhibition (EC50)
Outline: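 Huh7 cells, mock-treated or pre-treated with 1 mM insulin, were then exposed to compound at the indicated amounts. Lipid droplets stained with Oil Red O and quantified by absorbance at OD 540 nm.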

SREBP-2 = SREBP-2 expression in cultured primary human hepatocytes; settings: Homo sapiens, Hepatocyte, procedure of Example 6, read-out: SREBP-2 mRNA inhibition (EC50)
Outline: (§1)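 Primary human hepatocytes in culture exposed to a range of HPN-01 derivative concentrations; SREBP-1 and SREBP-2 mRNA expression then measured to assess inhibition.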

SREBP-1 = SREBP-1 expression in cultured primary human hepatocytes; settings: Homo sapiens, Hepatocyte, procedure of Example 6, read-out: SREBP-1 mRNA inhibition (EC50)
Outline: as §1

Structure (SMILES) | EC50 (Huh7 cells) [µM] | EC50 (SREBP-2) [µM] | EC50 (SREBP-1) [µM]
NC(=O)N1CCN(c2cc(-c3ccc(Cl)cc3)cc(-c3ccc(S(N)(=O)=O)cc3)c2N)CC1 [HPN-01623, 4-(4′-amino-4-chloro-4″-sulfamoyl-[1, 1′:3′,1″-terphenyl]-5′-yl)piperazine-1-carboxamide] | 15.3 | 50.1 | 38.1
NC(=O)c1cc(/C=C/C(=O)Nc2ccc(O)cc2)cc(-c2ccc(S(N)(=O)=O)cc2)c1N [HPN-01122, (E)-2-amino-5-(3-((4-hydroxyphenyl)amino)-3-oxoprop-1-en-1-yl)-4′-sulfamoyl-[1,1′-biphenyl]-3-carboxamide] | 2.44 | 7.29 | 9.61
NC(=O)c1cc(-c2ccc(Cl)cc2)cc(Sc2cccc(S(N)(=O)=O)c2)c1N [HPN-01414, 4-amino-4′-chloro-5-((3-sulfamoylphenyl)thio)-[1,1′-biphenyl]-3-carboxamide] | 1.57 | 9.86 | 3.94

Stronger by EC50 (Huh7 cells), values ahead:

EC50 (Huh7 cells) [µM] | Structure (SMILES) | EC50 (SREBP-2) [µM] | EC50 (SREBP-1) [µM]
0.58 | NC(=O)c1cc(Nc2cccc(C(=O)O)c2)cc(-c2ccc(S(N)(=O)=O)cc2)c1N [HPN-01317, 3-((6-amino-5-carbamoyl-4′-sulfamoyl-[1,1′-biphenyl]-3-yl)amino)benzoic acid] | 4.32 | 3.35
0.69 | COC(=O)c1cccc(Oc2cc(C(N)=O)c(N)c(-c3ccc(S(N)(=O)=O)cc3)c2)c1 [HPN-01320, methyl 3-((6-amino-5-carbamoyl-4′-sulfamoyl-[1,1′-biphenyl]-3-yl)oxy)benzoate] | 2.16 | 1.1
1.15 | NC(=O)c1cc(-c2ccc(Cl)cc2)cc(-c2ccc(S(N)(=O)=O)cc2)c1NCc1cccc(Cl)c1 [HPN-01532, 4-chloro-4′-((3-chlorobenzyl)amino)-4″-sulfamoyl-[1,1′:3′,1″-terphenyl]-5′-carboxamide] | 8.6 | 2.69
1.15 | NCCC(=O)Oc1c(C(N)=O)cc(-c2ccc(Br)cc2)cc1-c1ccc(NC(N)=O)cc1 [HPN-01526, 4-bromo-5′-carbamoyl-4″-ureido-[1,1′:3′,1″-terphenyl]-4′-yl 3-aminopropanoate] | 3.83 | 1.63
